Test results as given in US8399429B2, “Uracyl cyclopropyl nucleotides” (Janssen Products, LP, priority 2008, dated 2013).

How the values were obtained:
[1] = test system: HCV replicon (Huh-7 luc/neo, NS3-NS5B of HCV type 1b); assay: HCV replicon assay (Huh-Luc, luciferase readout); assay type: cell-based; conditions: Huh-Luc cells, HCV type 1b replicon, three days incubation, luciferase activity
Description: The compounds of formula I were examined for activity in the inhibition of HCV RNA replication in a cellular assay aimed at identifying compounds that inhibit a HCV functional cellular replicating cell line, also known as HCV replicons. The cellular assay was based on a bicistronic expression construct, as described by Lohmann et al. (1999), Science vol. 285 pp. 110-113 with modifications described by Krieger et al. (2001), Journal of Virology 75: 4614-4624, in a multi-target screening strategy.
The assay utilized the stably transfected cell line Huh-7 luc/neo (hereafter referred to as Huh-Luc). This cell line harbors an RNA encoding a bicistronic expression construct comprising the wild type NS3-NS5B regions of HCV type 1b translated from an Internal Ribosome Entry Site (IRES) from encephalomyocarditis virus (EMCV), preceded by a reporter portion (FfL-luciferase), and a selectable marker portion (neoR, neomycine phosphotransferase). The construct is bordered by 5′ and 3′ NTRs (non-translated regions) from HCV type 1b. Continued culture of the replicon cells in the presence of G418 (neo^R) is dependent on the replication of the HCV RNA. The stably transfected replicon cells that express HCV RNA, which replicates autonomously and to high levels, encoding inter alia luciferase, were used for screening the antiviral compounds.
The replicon cells were plated in 384 well plates in the presence of the test and control compounds which were added in various concentrations. Following an incubation of three days, HCV replication was measured by assaying luciferase activity (using standard luciferase assay substrates and reagents and a Perkin Elmer ViewLux™ ultraHTS microplate imager). Replicon cells in the control cultures have high luciferase expression in the absence of any inhibitor. The inhibitory activity of the compound on luciferase activity was monitored on the Huh-Luc cells, enabling a dose-response curve for each test compound. EC50 values were then calculated, which value represents the amount of the compound required to decrease the level of detected luciferase activity by 50%, or more specifically, the ability of the genetically linked HCV replicon RNA to replicate.

Huh7-CMV-Luc cells = assay: Cellular toxicity in Huh7-CMV-Luc replicon assay; assay type: cell-based; conditions: three days incubation, Luc activity, read-out: CC50 (μM) (Huh-7)
Protocol: (§1) Cellular toxicity was determined in the Huh7-CMV-Luc replicon assay. Replicon cells (2500 cells/well), stably transformed with a luciferase reporter gene under control of the cytomegalovirus (CMV) constitutive promotor, were cultured in the presence or absence of test compound concentrations. After three days of incubation at 37° C. in a humidified 5% CO2 atmosphere, cell proliferation was quantified by measuring the Luc activity, and expressed as CC50 values (cytotoxicity, 50% inhibitory concentration of cell growth). Tests were performed in 384-well plates.

[2] = test system: wild type human immunodeficiency virus (HIV) strain IIIB; assay: HIV assay in MT4 LTR-EGFP cells; assay type: cell-based, HIV-1; conditions: three days after infection
Protocol: (§2) Compounds of the invention were tested for their potency against wild type human immunodeficiency virus (HIV). Antiviral activity was evaluated using a cellular assay performed according to the following procedure. The human T-cell line MT4 was engineered with Green Fluorescent Protein (GFP) and a HIV-specific promoter, HIV-1 long terminal repeat (LTR). This cell line, designated MT4 LTR-EGFP, can be used for the in vitro evaluation of anti-HIV activity of investigational compounds. In HIV-1 infected cells, the Tat protein is produced, which upregulates the LTR promotor and eventually leads to stimulation of the GFP reporter production, allowing to measure ongoing HIV-infection fluorometrically. Effective concentration values such as 50% effective concentration (EC50) can be determined and are usually expressed in μM. An EC50 value is defined as the concentration of test compound that reduces the fluorescence of HIV-infected cells by 50%. Monitoring of HIV-1 infection was done using a scanning microscope. Image analysis allows very sensitive detection of viral infection. Measurements were done before cell necrosis, which usually takes place about five days after infection, in particular measurements were performed three days after infection. The column IIIB in the table list the EC50 values against the wild type strain IIIB.

MT-4 cells = assay: Cellular toxicity in the HIV cell-line (MT-4); assay type: cell-based, human
Protocol: as §2
(§3) Also the HIV activity is given (EC50 HIV (μM)) and the cellular toxicity in the HIV cell-line (CC50 (μM) (MT-4)).

[3] = Cellular toxicity in Huh7-CMV-Luc replicon assay; assay type: cell-based; conditions: human, Huh7-CMV-Luc cells, three days incubation, Luc activity; read-out: CC50 (μM) (Huh-7)
Protocol: as §1

[4] = Cellular toxicity in the HIV cell-line (MT-4); assay type: cell-based, human; conditions: human
Protocol: as §2, §3

[5] = Human immunodeficiency virus 1, IIIB, 72 h

SMILES | EC50 [1] | CC50 (Huh7-CMV-Luc cells) | EC50 [2] | CC50 (MT-4 cells) | EC50 ([1]; Hepatitis C virus, Huh-7, 72 h) | CC50 at 3 days [3] | EC50 [2, 5] | CC50 [4]
C[C@H](NP(=O)(OC[C@H]1O[C@@H](n2ccc(=O)[nH]c2=O)C2(CC2)[C@@H]1O)Oc1ccc(Cl)cc1)C(=O)OCc1ccccc1 (single isomer, unassigned) [Compound 7b] | 3.4 µM | > 98 µM | > 98 µM | > 90 µM |  |  |  | 
CCCCOC(=O)[C@H](C)NP(=O)(OC[C@H]1O[C@@H](n2ccc(=O)[nH]c2=O)C2(CC2)[C@@H]1O)Oc1cccc2ccccc12 (some centres unmarked) [Compound 15] |  |  |  |  | 3.6 µM | > 98 µM | > 60 µM | > 60 µM
C[C@H](NP(=O)(OC[C@H]1O[C@@H](n2ccc(=O)[nH]c2=O)C2(CC2)[C@@H]1O)Oc1ccc2c(ccn2C(=O)OC(C)(C)C)c1)C(=O)OCc1ccccc1 (some centres unmarked) [Compound 16] |  |  |  |  | 4.2 µM | > 32 µM | > 98 µM | > 32 µM
CCOC(=O)[C@H](Cc1ccccc1)NP(=O)(OC[C@H]1O[C@@H](n2ccc(=O)[nH]c2=O)C2(CC2)[C@@H]1O)Oc1ccccc1 (some centres unmarked) [Compound 17] |  |  |  |  | 4.4 µM | > 98 µM | > 98 µM | > 98 µM
C=CCCCCOC(=O)[C@H](C)NP(=O)(OC[C@H]1O[C@@H](n2ccc(=O)[nH]c2=O)C2(CC2)[C@@H]1O)Oc1ccc(CC=C)cc1OC (some centres unmarked) [Compound 18] |  |  |  |  | 5.1 µM | > 98 µM | > 98 µM | > 64 µM
C[C@H](NP(=O)(OC[C@H]1O[C@@H](n2ccc(=O)[nH]c2=O)C2(CC2)[C@@H]1O)Oc1ccc(C(C)(C)C)cc1)C(=O)OCc1ccccc1 (some centres unmarked) [Compound 19] |  |  |  |  | 7.2 µM | > 32 µM | > 32 µM | > 32 µM
C[C@H](NP(=O)(OC[C@H]1O[C@@H](n2ccc(=O)[nH]c2=O)C2(CC2)[C@@H]1O)Oc1ccc2[nH]ccc2c1)C(=O)OCc1ccccc1 (some centres unmarked) [Compound 20] |  |  |  |  | 7.6 µM | > 32 µM | > 98 µM | > 98 µM
CC[C@H](NP(=O)(OC[C@H]1O[C@@H](n2ccc(=O)[nH]c2=O)C2(CC2)[C@@H]1O)Oc1ccccc1)C(=O)OCc1ccccc1 (some centres unmarked) [Compound 21] |  |  |  |  | 7.8 µM | > 98 µM | > 98 µM | > 80 µM
Cc1ccc(C(C)C)c(OP(=O)(N[C@@H](C)C(=O)OCc2ccccc2)OC[C@H]2O[C@@H](n3ccc(=O)[nH]c3=O)C3(CC3)[C@@H]2O)c1 (some centres unmarked) [Compound 22] |  |  |  |  | 9.2 µM | > 32 µM | 1.65 µM | 2.1 µM
CCCCCCCCOC(=O)[C@H](C)NP(=O)(OC[C@H]1O[C@@H](n2ccc(=O)[nH]c2=O)C2(CC2)[C@@H]1O)Oc1ccc(Cl)cc1 (some centres unmarked) [Compound 23] |  |  |  |  | 11.2 µM | > 32 µM | > 98 µM | > 30 µM
CCC(C)OC(=O)[C@H](C)NP(=O)(OC[C@H]1O[C@@H](n2ccc(=O)[nH]c2=O)C2(CC2)[C@@H]1O)Oc1ccccc1 (some centres unmarked) [Compound 24] |  |  |  |  | 12.4 µM | > 98 µM | > 98 µM | > 98 µM
Cc1ccc(C(C)C)cc1OP(=O)(N[C@@H](C)C(=O)OCc1ccccc1)OC[C@H]1O[C@@H](n2ccc(=O)[nH]c2=O)C2(CC2)[C@@H]1O (some centres unmarked) [Compound 25] |  |  |  |  | 23.1 µM | > 32 µM | > 98 µM | 23 µM
CCOC(=O)C1(NP(=O)(OC[C@H]2O[C@@H](n3ccc(=O)[nH]c3=O)C3(CC3)[C@@H]2O)Oc2ccc(Cl)cc2)CCC1 (some centres unmarked) [Compound 26] |  |  |  |  | 73.7 µM | > 98 µM | > 98 µM | > 98 µM
COC(=O)C(C)(C)NP(=O)(OC[C@H]1O[C@@H](n2ccc(=O)[nH]c2=O)C2(CC2)[C@@H]1O)Oc1ccccc1 (some centres unmarked) [Compound 27] |  |  |  |  | 91.4 µM | > 98 µM | > 98 µM | > 98 µM
CC(C)OC(=O)C(C)(C)NP(=O)(OC[C@H]1O[C@@H](n2ccc(=O)[nH]c2=O)C2(CC2)[C@@H]1O)Oc1ccccc1 (some centres unmarked) [Compound 28] |  |  |  |  | > 98 µM | > 98 µM | > 98 µM | > 98 µM
CCOC(=O)C1(NP(=O)(OC[C@H]2O[C@@H](n3ccc(=O)[nH]c3=O)C3(CC3)[C@@H]2O)Oc2ccccc2)CC1 (some centres unmarked) [Compound 29] |  |  |  |  | > 98 µM | > 98 µM | > 98 µM | > 98 µM
C[C@H](NP(=O)(OC[C@H]1O[C@@H](n2ccc(=O)[nH]c2=O)C2(CC2)[C@@H]1O)Oc1ccccc1)C(=O)OC(C)(C)C (some centres unmarked) [Compound 30] |  |  |  |  | > 98 µM | > 98 µM | > 98 µM | > 98 µM
CC[C@H](NP(=O)(OC[C@H]1O[C@@H](n2ccc(=O)[nH]c2=O)C2(CC2)[C@@H]1O)Oc1ccccc1)C(=O)OC(C)C (some centres unmarked) [Compound 31] |  |  |  |  | > 98 µM | > 98 µM | > 95 µM | > 98 µM
CCOC(=O)C1(NP(=O)(OC[C@H]2O[C@@H](n3ccc(=O)[nH]c3=O)C3(CC3)[C@@H]2O)Oc2ccccc2)CCC1 (some centres unmarked) [Compound 32] |  |  |  |  | > 98 µM | > 98 µM | > 98 µM | > 98 µM
CCOC(=O)C1(NP(=O)(OC[C@H]2O[C@@H](n3ccc(=O)[nH]c3=O)C3(CC3)[C@@H]2O)Oc2ccc(Cl)cc2)CC1 (some centres unmarked) [Compound 33] |  |  |  |  | > 98 µM | > 98 µM | > 98 µM | > 98 µM
